Test results as given in patent US9334290B2, “Substituted tetrahydrocarbazole and carbazole carboxamide compounds” (Bristol-Myers Squibb Company, priority 2013, dated 2016).
pIC50: −log10 of the molar value.

Assays:
[1] = biological target: human recombinant Btk (Homo sapiens (Human), UniProt Q06187); assay: Human Recombinant Btk enzyme assay; format: biochemical; details: read-out: Btk IC50 value
[2] = biological target: Jak2 tyrosine kinase (Homo sapiens (Human), UniProt O60674); assay: Jak2 tyrosine kinase assay; format: biochemical
Sequence of Jak2 tyrosine kinase (O60674 whole entry): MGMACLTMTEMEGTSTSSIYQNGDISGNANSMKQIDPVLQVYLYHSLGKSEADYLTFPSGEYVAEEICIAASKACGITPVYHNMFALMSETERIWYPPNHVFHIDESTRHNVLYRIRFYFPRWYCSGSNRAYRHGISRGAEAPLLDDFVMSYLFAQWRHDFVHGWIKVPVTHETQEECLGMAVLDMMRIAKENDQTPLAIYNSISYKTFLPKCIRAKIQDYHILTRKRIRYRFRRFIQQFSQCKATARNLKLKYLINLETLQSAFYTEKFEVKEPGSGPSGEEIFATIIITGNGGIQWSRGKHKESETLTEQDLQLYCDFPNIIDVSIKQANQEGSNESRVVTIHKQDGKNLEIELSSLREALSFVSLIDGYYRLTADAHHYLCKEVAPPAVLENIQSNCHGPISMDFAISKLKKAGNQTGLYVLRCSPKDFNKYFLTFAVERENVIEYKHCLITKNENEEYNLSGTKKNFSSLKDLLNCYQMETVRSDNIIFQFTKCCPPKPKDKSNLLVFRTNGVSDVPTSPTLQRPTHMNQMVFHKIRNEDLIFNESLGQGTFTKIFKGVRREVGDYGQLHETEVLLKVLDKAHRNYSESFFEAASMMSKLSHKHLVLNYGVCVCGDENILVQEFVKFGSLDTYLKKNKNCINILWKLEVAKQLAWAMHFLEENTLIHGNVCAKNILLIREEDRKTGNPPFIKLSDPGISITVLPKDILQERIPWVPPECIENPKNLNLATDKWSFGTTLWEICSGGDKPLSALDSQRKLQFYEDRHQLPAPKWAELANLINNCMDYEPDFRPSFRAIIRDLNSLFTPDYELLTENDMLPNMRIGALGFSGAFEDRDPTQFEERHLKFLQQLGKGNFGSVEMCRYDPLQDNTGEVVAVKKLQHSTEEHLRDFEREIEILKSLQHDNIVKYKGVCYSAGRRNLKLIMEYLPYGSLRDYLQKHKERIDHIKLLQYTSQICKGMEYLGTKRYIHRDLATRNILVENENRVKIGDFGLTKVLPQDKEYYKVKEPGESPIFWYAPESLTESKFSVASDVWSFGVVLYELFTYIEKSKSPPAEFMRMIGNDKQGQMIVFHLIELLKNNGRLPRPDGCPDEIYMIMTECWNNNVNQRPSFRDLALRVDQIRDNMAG

[3] = system: CD69 expression on B cells in human whole blood; assay: Whole blood assay of BCR-stimulated CD69 expression on B cells; format: cell-based; details: BCR-stimulated, read-out: CD69 IC50 values

Sequence of human recombinant Btk (Q06187 whole entry): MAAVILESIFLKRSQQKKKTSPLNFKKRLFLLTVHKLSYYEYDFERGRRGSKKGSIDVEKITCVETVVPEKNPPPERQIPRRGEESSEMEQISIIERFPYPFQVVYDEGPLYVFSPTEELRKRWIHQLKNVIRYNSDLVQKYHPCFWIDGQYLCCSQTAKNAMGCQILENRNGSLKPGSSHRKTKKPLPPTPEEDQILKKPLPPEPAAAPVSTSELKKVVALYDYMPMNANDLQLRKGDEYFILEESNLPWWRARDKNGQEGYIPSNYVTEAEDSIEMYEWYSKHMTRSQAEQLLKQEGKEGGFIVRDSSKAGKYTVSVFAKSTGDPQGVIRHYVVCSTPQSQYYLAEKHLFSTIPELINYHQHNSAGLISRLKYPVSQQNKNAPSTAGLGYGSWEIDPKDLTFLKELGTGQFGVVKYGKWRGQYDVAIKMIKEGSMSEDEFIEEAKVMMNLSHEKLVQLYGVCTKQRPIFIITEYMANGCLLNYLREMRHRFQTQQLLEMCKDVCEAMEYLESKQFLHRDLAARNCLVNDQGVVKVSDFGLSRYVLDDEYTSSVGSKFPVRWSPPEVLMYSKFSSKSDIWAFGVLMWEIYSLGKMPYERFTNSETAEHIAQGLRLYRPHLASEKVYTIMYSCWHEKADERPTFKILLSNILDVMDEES

SMILES	pIC50 [1]	pIC50 [2]	pIC50 [3]	Ratio of Jak2/Btk IC50 values ([2]; selectivity of Btk over Jak2)
Cc1c(-c2c(F)cc(C(N)=O)c3[nH]c4c(c23)CC[C@@H](C(C)(C)O)C4)cccc1-n1c(=O)c2cccc(F)c2n(C)c1=O (atropisomer, axis not shown) [Example 27, 6-Fluoro-5-(R)-(3-(S)-(8-fluoro-1-methyl-2,4-dioxo-1,2-dihydroquinazolin-3(4H)-yl)-2-methylphenyl)-2-(R)-(2-hydroxypropan-2-yl)-2,3,4,9-tetrahydro-1H-carbazole-8-carboxamide]	8.66	< 5.70	6.82	
COc1ccc2c(=O)n(-c3cccc(-c4c(Cl)cc(C(N)=O)c5[nH]c6cc(C(C)(C)O)ccc6c45)c3C)c(=O)n(C)c2c1 (single isomer, unassigned) [Example 6]	8.96	5.82	7.00	1400
